Test results: patent publication US20160287571A1, “PHARMACEUTICAL COMPOSITIONS COMPRISING ANTIBACTERIAL AGENTS” (priority 2013, published 2016)
Read-outs that look alike come from different tables or passages of the source.

Tests used:
Format in all cases: cell-based, Acinetobacter baumannii
[1] = tested on: A. baumannii NCTC 13304 (OXA 51, OXA 27); experiment: Time kill study; conditions: for Bacterial count: agent alone at 8 mcg/ml, initial count 6.06 log CFU/ml
Description: (§1) The synergistic killing effect of the combinations according to invention was studied using time kill studies. In a typical time kill study, freshly grown cultures were diluted to the required cell density (initial starting inoculum) in Cation adjusted Muller Hinton broth medium (BD, USA). The antibacterial agents (either alone or in combination) at the required concentrations were added into the culture-containing medium. The samples were incubated under shaking condition (120 rpm) at 37° C. Enumeration of viable bacterial count was done every 2 hour by diluting in normal saline and plating on to the Tryptic Soya Agar plates (BD, USA). The plates were incubated for 24 hours to arrive at the viable bacterial count. The results are expressed in terms of Log CFU per […]. In general, the decrease of 1 Log CFU/ml, corresponds to 90% killing of bacteria. Similarly, 2 Log CFU/ml reductions indicates 99% killing of bacteria and 3 Log CFU/ml reductions is equal to 99.9% killing of bacteria.

[2] = tested on: A. baumannii NCTC 13302 (OXA 51, OXA 25); experiment: Time kill study; conditions: for Bacterial count: agent alone at 8 mcg/ml, initial count 6.54 log CFU/ml
Description: as §1

[3] = tested on: A. baumannii NCTC 13301 (OXA 51, OXA 23); experiment: MIC in Muller Hinton Agar (CLSI agar dilution); conditions: Acinetobacter baumannii
Description: (§2) The antibacterial activity of combinations according to the invention against resistant bacterial strains was investigated. Minimum Inhibitory Concentration (MIC) for the combinations according to invention was determined in Muller Hinton Agar (MHA) (BD, USA) according to Clinical and Laboratory Standards Institute (CLSI) recommendations (Clinical and Laboratory Standards Institute (CLSI), Performance Standards for Antimicrobial Susceptibility Testing, 20th Informational Supplement, M 100-S20, Volume 30, No. 1, 2010). Typically, the test strains were adjusted to deliver about 10^4 CFU per spot with a multipoint inoculator (Applied Quality Services, UK). The plates were pored with MHA containing doubling concentration range of the test combinations according to invention. The plates were inoculated and were incubated at 35° C. for 18 hours.

[4] = tested on: A. baumannii NCTC 13304 (OXA 51, OXA 27); experiment: MIC in Muller Hinton Agar (CLSI agar dilution); conditions: Acinetobacter baumannii
Description: as §2

[5] = tested on: A. baumannii G 156 (OXA 51, OXA 23); experiment: MIC in Muller Hinton Agar (CLSI agar dilution); conditions: Acinetobacter baumannii
Description: as §2

[6] = tested on: A. baumannii NCTC 13305 (OXA 51, OXA 58); experiment: MIC in Muller Hinton Agar (CLSI agar dilution); conditions: Acinetobacter baumannii
Description: as §2

[7] = tested on: A. baumannii NCTC 13303 (OXA 51, OXA 26); experiment: MIC in Muller Hinton Agar (CLSI agar dilution); conditions: Acinetobacter baumannii
Description: as §2

[8] = tested on: A. baumannii J 144 (OXA 51, OXA 23); experiment: MIC in Muller Hinton Agar (CLSI agar dilution); conditions: Acinetobacter baumannii
Description: as §2

[9] = tested on: A. baumannii Q 1460648 (OXA 51, OXA 23); experiment: MIC in Muller Hinton Agar (CLSI agar dilution); conditions: Acinetobacter baumannii
Description: as §2

[10] = tested on: A. baumannii NCTC 13302 (OXA 51, OXA 25); experiment: MIC in Muller Hinton Agar (CLSI agar dilution); conditions: Acinetobacter baumannii
Description: as §2

[11] = tested on: A. baumannii M 126 (OXA 51, OXA 23); experiment: MIC in Muller Hinton Agar (CLSI agar dilution); conditions: Acinetobacter baumannii
Description: as §2

Structure (SMILES): CC1(C)[C@H](C(=O)O)N2C(=O)C[C@H]2S1(=O)=O [Sulbactam, sulbactam]
- Bacterial count ([1]; 2 hours): 7.73 Log CFU/ml
- Bacterial count ([1]; 4 hours): 7.07 Log CFU/ml
- Bacterial count ([1]; 6 hours): 8.2 Log CFU/ml
- Effect on bacterial counts throughout the duration of the study (in words) ([1]; A. baumannii NCTC 13304, summary of Table 4): did not reduce the bacterial counts
- Bacterial count ([2]; 2 hours): 5.74 Log CFU/ml
- Bacterial count ([2]; 4 hours): 5.09 Log CFU/ml
- Bacterial count ([2]; 6 hours): 6.04 Log CFU/ml
- Bacterial count ([2]; 8 hours): 7.46 Log CFU/ml
- Effect on bacterial counts throughout the duration of the study (in words) ([2]; A. baumannii NCTC 13302, summary of Table 3): did not reduce the bacterial counts
- MIC ([3]; NCTC13301, read-out: MIC of Sulbactam, In presence of Compound of Formula (I) (4 mcg/ml), NCTC 13301): 4 µg/mL
- MIC ([3]; NCTC13301, read-out: MIC of Sulbactam, In presence of Compound of Formula (I) (8 mcg/ml), NCTC 13301): 2 µg/mL
- MIC ([3]; NCTC13301, agent alone, A. baumannii NCTC 13301): 32 µg/mL
- MIC ([4]; NCTC13304, read-out: MIC of Sulbactam, In presence of Compound of Formula (I) (4 mcg/ml), NCTC 13304): 2 µg/mL
- MIC ([4]; NCTC13304, read-out: MIC of Sulbactam, In presence of Compound of Formula (I) (8 mcg/ml), NCTC 13304): 1 µg/mL
- MIC ([4]; NCTC13304, agent alone, A. baumannii NCTC 13304): 8 µg/mL
- MIC ([5]; read-out: MIC of Sulbactam, In presence of Compound of Formula (I) (4 mcg/ml), G 156): 4 µg/mL
- MIC ([5]; read-out: MIC of Sulbactam, In presence of Compound of Formula (I) (8 mcg/ml), G 156): 2 µg/mL
- MIC ([5]; agent alone, A. baumannii G 156): 8 µg/mL
- MIC ([6]; NCTC13305, read-out: MIC of Sulbactam, In presence of Compound of Formula (I) (4 mcg/ml), NCTC 13305): 2 µg/mL
- MIC ([6]; NCTC13305, read-out: MIC of Sulbactam, In presence of Compound of Formula (I) (8 mcg/ml), NCTC 13305): 1 µg/mL
- MIC ([6]; NCTC13305, agent alone, A. baumannii NCTC 13305): 4 µg/mL
- MIC ([7]; NCTC13303, read-out: MIC of Sulbactam, In presence of Compound of Formula (I) (4 mcg/ml), NCTC 13303): 8 µg/mL
- MIC ([7]; NCTC13303, read-out: MIC of Sulbactam, In presence of Compound of Formula (I) (8 mcg/ml), NCTC 13303): 4 µg/mL
- MIC ([7]; NCTC13303, agent alone, A. baumannii NCTC 13303): 16 µg/mL
- MIC ([8]; read-out: MIC of Sulbactam, In presence of Compound of Formula (I) (4 mcg/ml), J 144): 2 µg/mL
- MIC ([8]; read-out: MIC of Sulbactam, In presence of Compound of Formula (I) (8 mcg/ml), J 144): 1 µg/mL
- MIC ([8]; agent alone, A. baumannii J 144): 16 µg/mL
- MIC ([9]; read-out: MIC of Sulbactam, In presence of Compound of Formula (I) (4 mcg/ml), Q 1460648): 4 µg/mL
- MIC ([9]; read-out: MIC of Sulbactam, In presence of Compound of Formula (I) (8 mcg/ml), Q 1460648): 2 µg/mL
- MIC ([9]; agent alone, A. baumannii Q 1460648): 16 µg/mL
- MIC ([10]; NCTC13302, read-out: MIC of Sulbactam, In presence of Compound of Formula (I) (4 mcg/ml), NCTC 13302): 4 µg/mL
- MIC ([10]; NCTC13302, read-out: MIC of Sulbactam, In presence of Compound of Formula (I) (8 mcg/ml), NCTC 13302): 2 µg/mL
- MIC ([10]; NCTC13302, agent alone, A. baumannii NCTC 13302): 32 µg/mL
- MIC ([11]; read-out: MIC of Sulbactam, In presence of Compound of Formula (I) (4 mcg/ml), M 126): 8 µg/mL
- MIC ([11]; read-out: MIC of Sulbactam, In presence of Compound of Formula (I) (8 mcg/ml), M 126): 2 µg/mL
- MIC ([11]; agent alone, A. baumannii M 126): 32 µg/mL
